From BindingDB's records for doi:10.1021/bi7019707 (Emory University, 2008)

Columns and labels:
Experiment in all cases: Inhibition Assay
[1] = biological target: T1, Amine oxidase [flavin-containing] A (Rattus norvegicus, UniProt P21396)
T1 sequence (P21396 whole entry): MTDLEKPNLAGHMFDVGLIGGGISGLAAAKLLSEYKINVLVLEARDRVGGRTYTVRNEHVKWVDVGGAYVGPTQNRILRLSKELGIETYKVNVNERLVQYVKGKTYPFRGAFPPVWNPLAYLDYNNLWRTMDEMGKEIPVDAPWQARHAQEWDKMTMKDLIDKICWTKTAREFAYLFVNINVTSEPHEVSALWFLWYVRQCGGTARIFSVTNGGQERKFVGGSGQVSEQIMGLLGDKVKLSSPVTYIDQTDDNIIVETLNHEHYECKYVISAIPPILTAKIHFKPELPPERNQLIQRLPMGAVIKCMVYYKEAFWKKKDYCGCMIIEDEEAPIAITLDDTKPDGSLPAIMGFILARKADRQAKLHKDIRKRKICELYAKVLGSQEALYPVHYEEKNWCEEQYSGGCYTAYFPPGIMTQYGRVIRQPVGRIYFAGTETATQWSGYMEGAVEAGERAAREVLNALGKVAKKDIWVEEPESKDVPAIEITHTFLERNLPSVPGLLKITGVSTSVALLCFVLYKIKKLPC
Description: (§1) Competitive inhibition assay using human and rat MAOs.

[2] = biological target: T2, Amine oxidase [flavin-containing] A (Homo sapiens, UniProt P21397)
T2 sequence (P21397 whole entry): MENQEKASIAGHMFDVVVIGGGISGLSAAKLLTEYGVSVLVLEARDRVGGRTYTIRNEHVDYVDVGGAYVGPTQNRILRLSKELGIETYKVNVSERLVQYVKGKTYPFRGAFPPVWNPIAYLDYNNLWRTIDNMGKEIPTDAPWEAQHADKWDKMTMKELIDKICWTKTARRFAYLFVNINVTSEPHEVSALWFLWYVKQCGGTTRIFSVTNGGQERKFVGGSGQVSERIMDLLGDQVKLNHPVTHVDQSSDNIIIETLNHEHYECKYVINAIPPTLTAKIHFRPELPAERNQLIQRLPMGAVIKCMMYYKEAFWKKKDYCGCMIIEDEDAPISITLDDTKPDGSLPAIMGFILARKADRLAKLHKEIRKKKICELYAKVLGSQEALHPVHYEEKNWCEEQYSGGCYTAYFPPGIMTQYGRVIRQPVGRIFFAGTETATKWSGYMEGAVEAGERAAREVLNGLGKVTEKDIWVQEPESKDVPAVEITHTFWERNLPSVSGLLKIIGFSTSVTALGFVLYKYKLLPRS
Description: as §1

[3] = biological target: T3, Amine oxidase [flavin-containing] B (Rattus norvegicus, UniProt P19643)
T3 sequence (P19643 whole entry): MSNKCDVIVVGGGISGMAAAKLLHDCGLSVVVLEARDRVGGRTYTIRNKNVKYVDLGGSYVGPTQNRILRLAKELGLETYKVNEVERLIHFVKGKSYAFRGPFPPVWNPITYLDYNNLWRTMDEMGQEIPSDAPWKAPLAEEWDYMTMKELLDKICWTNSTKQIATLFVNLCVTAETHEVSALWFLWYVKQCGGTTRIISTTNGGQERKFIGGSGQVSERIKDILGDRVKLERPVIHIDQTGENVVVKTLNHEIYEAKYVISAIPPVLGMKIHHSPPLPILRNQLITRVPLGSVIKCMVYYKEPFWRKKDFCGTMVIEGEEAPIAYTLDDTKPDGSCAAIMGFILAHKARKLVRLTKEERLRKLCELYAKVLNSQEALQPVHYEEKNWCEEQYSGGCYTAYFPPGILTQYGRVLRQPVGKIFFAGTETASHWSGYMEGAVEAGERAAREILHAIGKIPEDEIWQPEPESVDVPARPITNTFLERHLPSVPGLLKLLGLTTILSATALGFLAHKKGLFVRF
Description: as §1

[4] = biological target: T4, Amine oxidase [flavin-containing] B (Homo sapiens, UniProt P27338)
T4 sequence (P27338 whole entry): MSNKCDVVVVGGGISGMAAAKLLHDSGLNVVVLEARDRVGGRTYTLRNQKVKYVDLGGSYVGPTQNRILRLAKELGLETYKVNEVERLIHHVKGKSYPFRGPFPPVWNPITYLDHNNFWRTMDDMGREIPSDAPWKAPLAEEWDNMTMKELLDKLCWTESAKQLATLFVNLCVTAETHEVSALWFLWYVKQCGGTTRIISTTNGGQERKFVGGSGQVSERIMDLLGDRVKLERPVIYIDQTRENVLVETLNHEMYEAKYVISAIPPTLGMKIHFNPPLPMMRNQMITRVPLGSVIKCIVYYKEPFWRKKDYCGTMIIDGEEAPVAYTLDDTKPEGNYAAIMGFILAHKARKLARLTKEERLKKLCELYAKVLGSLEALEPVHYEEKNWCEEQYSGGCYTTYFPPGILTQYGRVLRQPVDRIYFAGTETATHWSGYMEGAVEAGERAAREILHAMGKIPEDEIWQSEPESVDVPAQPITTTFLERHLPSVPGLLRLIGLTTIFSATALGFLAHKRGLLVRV
Description: as §1

Compound `C#CCN(C)Cc1ccc(CC(=O)NC2CC(C)(C)N(O)C(C)(C)C2)cc1` [ParSL] has a Ki [1] of 151 µM, a Ki [2] of 212 µM and a Ki [3] of 107 µM. For the same compound, the Ki [4] was 22 µM.
